Measured values as given in patent US20230150974A1 (Foghorn Therapeutics Inc., priority 2020, published 2023).

Key:
HiBiT-BRM = biological target: T1, HiBiT-BRM (Homo sapiens, UniProt P51531); assay: HiBiT-BRM cell-based degradation assay (Nano-Glo HiBiT Lytic Detection); details: HeLa cells expressing HiBiT-BRM, 24 h; for DC50: read-out: BRM HiBit Degradation IC50
T1 construct: expressed in transfected cells
In short: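 HeLa cells stably expressing HiBiT-tagged BRM were treated for 24 h, then lysed with LgBiT-containing Nano-Glo reagent and luminescence read. % degradation scaled between DMSO (high control) and 2 μM reference BRM/BRG1 degrader (low control).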

HiBit-BRG1 = biological target: T2, HiBit-BRG1 (Homo sapiens, UniProt P51532); assay: HiBit-BRG1 cell-based degradation assay (Nano-Glo HiBiT Lytic Detection); details: HeLa cells expressing HiBit-BRG1 and LgBit, 24 h; for DC50: read-out: BRG1 HiBit Degradation IC50; for Dmax: read-out: BRG1 HiBit Degradation Maximum (%)
T2 construct: expressed in transfected cells
In short: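 Percent degradation derived from lytic HiBiT signal, normalized to DMSO-treated cells and to cells given 2 μM of a known BRM/BRG1 degrader. The HeLa line stably expressed HiBit-BRG1 and LgBit; treatment lasted 24 h at 5000 cells per well.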

T1 sequence (P51531 whole entry): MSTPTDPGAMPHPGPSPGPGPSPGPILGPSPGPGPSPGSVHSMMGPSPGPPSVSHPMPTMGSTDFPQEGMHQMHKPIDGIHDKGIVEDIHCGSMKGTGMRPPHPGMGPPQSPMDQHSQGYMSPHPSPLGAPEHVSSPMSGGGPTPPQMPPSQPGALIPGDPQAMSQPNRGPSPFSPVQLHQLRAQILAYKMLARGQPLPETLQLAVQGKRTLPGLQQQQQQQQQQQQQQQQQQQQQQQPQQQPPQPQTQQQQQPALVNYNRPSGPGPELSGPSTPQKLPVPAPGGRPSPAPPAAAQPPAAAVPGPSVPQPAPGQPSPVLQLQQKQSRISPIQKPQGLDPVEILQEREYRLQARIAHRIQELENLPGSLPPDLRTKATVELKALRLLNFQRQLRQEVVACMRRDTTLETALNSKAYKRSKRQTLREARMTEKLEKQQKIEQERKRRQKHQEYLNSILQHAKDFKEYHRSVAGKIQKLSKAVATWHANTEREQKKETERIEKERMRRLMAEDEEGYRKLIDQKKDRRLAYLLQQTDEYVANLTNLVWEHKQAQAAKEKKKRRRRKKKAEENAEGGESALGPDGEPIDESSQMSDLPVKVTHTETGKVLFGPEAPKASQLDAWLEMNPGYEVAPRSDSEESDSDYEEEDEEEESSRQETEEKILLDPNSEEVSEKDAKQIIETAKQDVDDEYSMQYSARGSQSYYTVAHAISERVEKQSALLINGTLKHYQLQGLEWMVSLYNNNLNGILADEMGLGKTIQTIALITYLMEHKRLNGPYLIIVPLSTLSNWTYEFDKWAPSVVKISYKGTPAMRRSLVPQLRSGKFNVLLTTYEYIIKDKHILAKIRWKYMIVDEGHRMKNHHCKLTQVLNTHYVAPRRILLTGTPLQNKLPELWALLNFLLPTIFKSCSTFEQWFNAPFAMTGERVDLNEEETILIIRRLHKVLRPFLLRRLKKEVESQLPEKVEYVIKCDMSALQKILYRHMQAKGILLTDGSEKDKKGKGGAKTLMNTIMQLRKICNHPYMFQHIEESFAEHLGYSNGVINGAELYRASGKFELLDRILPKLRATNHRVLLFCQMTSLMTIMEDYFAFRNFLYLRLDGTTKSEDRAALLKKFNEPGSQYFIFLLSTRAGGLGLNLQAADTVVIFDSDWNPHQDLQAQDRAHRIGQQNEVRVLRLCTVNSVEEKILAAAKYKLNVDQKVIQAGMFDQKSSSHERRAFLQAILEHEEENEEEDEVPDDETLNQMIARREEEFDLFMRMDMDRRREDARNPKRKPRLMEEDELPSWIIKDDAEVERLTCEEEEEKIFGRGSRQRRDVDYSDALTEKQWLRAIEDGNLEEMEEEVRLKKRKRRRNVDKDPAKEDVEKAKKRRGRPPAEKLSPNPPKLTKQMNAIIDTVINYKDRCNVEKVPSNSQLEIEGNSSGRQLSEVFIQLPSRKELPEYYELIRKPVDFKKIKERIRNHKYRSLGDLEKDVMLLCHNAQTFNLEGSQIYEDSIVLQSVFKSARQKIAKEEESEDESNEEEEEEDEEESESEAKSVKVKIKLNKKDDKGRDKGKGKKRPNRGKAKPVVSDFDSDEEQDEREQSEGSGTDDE
T2 sequence (P51532 whole entry): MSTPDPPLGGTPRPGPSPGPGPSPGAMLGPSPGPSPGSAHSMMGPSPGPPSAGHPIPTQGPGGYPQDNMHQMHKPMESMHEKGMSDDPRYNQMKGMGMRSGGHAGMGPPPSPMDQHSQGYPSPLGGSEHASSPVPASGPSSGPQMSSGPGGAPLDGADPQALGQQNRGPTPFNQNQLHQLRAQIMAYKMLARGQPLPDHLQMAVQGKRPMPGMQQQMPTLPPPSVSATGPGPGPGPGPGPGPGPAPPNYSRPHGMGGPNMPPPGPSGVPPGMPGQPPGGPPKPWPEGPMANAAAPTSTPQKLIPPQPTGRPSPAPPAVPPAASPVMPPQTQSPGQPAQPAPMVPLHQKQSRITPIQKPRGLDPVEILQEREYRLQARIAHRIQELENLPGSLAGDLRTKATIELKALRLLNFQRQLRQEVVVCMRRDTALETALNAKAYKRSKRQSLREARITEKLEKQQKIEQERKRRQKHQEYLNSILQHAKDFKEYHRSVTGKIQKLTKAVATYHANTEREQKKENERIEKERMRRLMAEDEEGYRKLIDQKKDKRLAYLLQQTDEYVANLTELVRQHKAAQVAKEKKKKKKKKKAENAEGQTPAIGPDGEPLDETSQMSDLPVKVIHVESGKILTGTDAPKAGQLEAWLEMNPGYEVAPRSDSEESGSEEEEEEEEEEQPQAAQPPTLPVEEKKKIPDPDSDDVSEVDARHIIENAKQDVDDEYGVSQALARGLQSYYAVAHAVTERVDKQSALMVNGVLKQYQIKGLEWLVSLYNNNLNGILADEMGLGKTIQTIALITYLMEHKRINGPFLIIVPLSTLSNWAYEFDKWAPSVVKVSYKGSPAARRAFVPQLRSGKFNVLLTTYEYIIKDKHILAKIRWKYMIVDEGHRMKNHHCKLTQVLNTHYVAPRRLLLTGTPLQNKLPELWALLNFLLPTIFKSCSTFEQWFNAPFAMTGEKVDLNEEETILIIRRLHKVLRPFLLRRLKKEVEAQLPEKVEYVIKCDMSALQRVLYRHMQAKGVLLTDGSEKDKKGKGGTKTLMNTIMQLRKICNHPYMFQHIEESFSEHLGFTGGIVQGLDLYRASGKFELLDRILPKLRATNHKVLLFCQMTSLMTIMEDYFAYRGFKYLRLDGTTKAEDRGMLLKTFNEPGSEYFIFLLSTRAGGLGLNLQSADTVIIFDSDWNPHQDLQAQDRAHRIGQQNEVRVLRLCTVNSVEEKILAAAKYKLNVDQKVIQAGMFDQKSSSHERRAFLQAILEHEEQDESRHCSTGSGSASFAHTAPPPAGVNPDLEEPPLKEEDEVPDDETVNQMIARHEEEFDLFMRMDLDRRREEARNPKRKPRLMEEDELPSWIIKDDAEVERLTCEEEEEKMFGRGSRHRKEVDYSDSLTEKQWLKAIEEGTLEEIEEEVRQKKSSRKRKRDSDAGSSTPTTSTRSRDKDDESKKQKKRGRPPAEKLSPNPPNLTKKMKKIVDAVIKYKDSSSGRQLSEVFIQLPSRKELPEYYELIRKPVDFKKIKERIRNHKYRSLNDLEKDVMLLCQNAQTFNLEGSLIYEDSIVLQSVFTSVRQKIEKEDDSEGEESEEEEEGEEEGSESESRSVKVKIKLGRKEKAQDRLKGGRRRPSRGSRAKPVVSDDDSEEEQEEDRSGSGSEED

SMILES | DC50 (HiBiT-BRM) [nM] | DC50 (HiBit-BRG1) [nM] | Dmax (HiBit-BRG1) [%] | BRM HiBit Degradation Maximum (%) (HiBiT-BRM)
Cc1ncsc1-c1ccc(CNC(=O)[C@@H]2C[C@@H](O)CN2C(=O)[C@@H](NC(=O)CCN2CCN(CC(=O)NCc3ccc(CCOc4cc(-c5ccccc5O)nnc4N)cc3)CC2)C(C)(C)C)cc1 [Compound 179, (2S,4R)-1-[(2S)-2-(3-[4-[([[4-(2-[[3-amino-6-(2-hydroxyphenyl)pyridazin-4-yl]oxy]ethyl)phenyl]methyl]carbamoyl)methyl]piperazin-1-yl]propanamido)-3,3-dimethylbutanoyl]-4-hydroxy-N-[[4-(4-methyl-1,3-thiazol-5-yl)phenyl]methyl]pyrrolidine-2-carboxamide] | > 1000 | > 1000 | < 50 | C (“C” indicates maximum degradation <50%)
Cc1ncsc1-c1ccc(CNC(=O)[C@@H]2C[C@@H](O)CN2C(=O)[C@@H](NC(=O)CCN2CCC(C(=O)NCc3ccc(CCOc4cc(-c5ccccc5O)nnc4N)cc3)CC2)C(C)(C)C)cc1 [Compound 180, N-(4-(2-((3-amino-6-(2-hydroxyphenyl)pyridazin-4-yl)oxy)ethyl)benzyl)-1-(3-(((S)-1-((2S,4R)-4-hydroxy-2-((4-(4-methylthiazol-5-yl)benzyl)carbamoyl)pyrrolidin-1-yl)-3,3-dimethyl-1-oxobutan-2-yl)amino)-3-oxopropyl)piperidine-4-carboxamide] | > 1000 | > 1000 | < 50 | B (“B” indicates maximum degradation ≥50%)
Cc1ncsc1-c1ccc(CNC(=O)[C@@H]2C[C@@H](O)CN2C(=O)[C@@H](NC(=O)CCN2CC(C(=O)NCc3ccc(CCOc4cc(-c5ccccc5O)nnc4N)cc3)C2)C(C)(C)C)cc1 [Compound 182, (2S,4R)-1-[(2S)-2-[3-[3-([[4-(2-[[3-amino-6-(2-hydroxyphenyl)pyridazin-4-yl]oxy]ethyl)phenyl]methyl]carbamoyl)azetidin-1-yl]propanamido]-3,3-dimethylbutanoyl]-4-hydroxy-N-[[4-(4-methyl-1,3-thiazol-5-yl)phenyl]methyl]pyrrolidine-2-carboxamide] | > 1000 | > 1000 | < 50 | C (“C” indicates maximum degradation <50%)
Cc1ncsc1-c1ccc(CNC(=O)[C@@H]2C[C@@H](O)CN2C(=O)[C@@H](NC(=O)CCN2CC(CC(=O)NCc3ccc(CCOc4cc(-c5ccccc5O)nnc4N)cc3)C2)C(C)(C)C)cc1 [Compound 183, (2S,4R)-1-[(2S)-2-(3-[3-[([[4-(2-[[3-amino-6-(2-hydroxyphenyl)pyridazin-4-yl]oxy]ethyl)phenyl]methyl]carbamoyl)methyl]azetidin-1-yl]propanamido)-3,3-dimethylbutanoyl]-4-hydroxy-N-[[4-(4-methyl-1,3-thiazol-5-yl)phenyl]methyl]pyrrolidine-2-carboxamide] | > 1000 | > 1000 | < 50 | C (“C” indicates maximum degradation <50%)
Cc1ncsc1-c1ccc(CNC(=O)[C@@H]2C[C@@H](O)CN2C(=O)[C@@H](NC(=O)CCN2C[C@@H]3[C@H](C2)[C@H]3C(=O)NCc2ccc(CCOc3cc(-c4ccccc4O)nnc3N)cc2)C(C)(C)C)cc1 [Compound 184, (1R,5S,6S)-N-[[4-(2-[[3-amino-6-(2-hydroxyphenyl)pyridazin-4-yl]oxy]ethyl)phenyl]methyl]-3-(2-[[(2S)-1-[(2S,4R)-4-hydroxy-2-([[4-(4-methyl-1,3-thiazol-5-yl)phenyl]methyl]carbamoyl)pyrrolidin-1-yl]-3,3-dimethyl-1-oxobutan-2-yl]carbamoyl]ethyl)-3-azabicyclo[3.1.0]hexane-6-carboxamide] | > 1000 | > 1000 | < 50 | B (“B” indicates maximum degradation ≥50%)
Cc1ncsc1-c1ccc(CNC(=O)[C@@H]2C[C@@H](O)CN2C(=O)[C@@H](NC(=O)CCN2CCC3(CC2)CC(C(=O)NCc2ccc(CCOc4cc(-c5ccccc5O)nnc4N)cc2)C3)C(C)(C)C)cc1 [Compound 186, N-[[4-(2-[[3-amino-6-(2-hydroxyphenyl)pyridazin-4-yl]oxy]ethyl)phenyl]methyl]-7-(2-[[(2S)-1-[(2S,4R)-4-hydroxy-2-([[4-(4-methyl-1,3-thiazol-5-yl)phenyl]methyl]carbamoyl)pyrrolidin-1-yl]-3,3-dimethyl-1-oxobutan-2-yl]carbamoyl]ethyl)-7-azaspiro[3.5]nonane-2-carboxamide] | > 1000 | > 1000 | < 50 | C (“C” indicates maximum degradation <50%)
Cc1ncsc1-c1ccc(CNC(=O)[C@@H]2C[C@@H](O)CN2C(=O)[C@@H](NC(=O)CCN2CC3(CN(CCC(=O)NCc4ccc(CCOc5cc(-c6ccccc6O)nnc5N)cc4)C3)C2)C(C)(C)C)cc1 [Compound 188, (2S,4R)-1-[(2S)-2-(3-[6-[2-([[4-(2-[[3-amino-6-(2-hydroxyphenyl)pyridazin-4-yl]oxy]ethyl)phenyl]methyl]carbamoyl)ethyl]-2,6-diazaspiro[3.3]heptan-2-yl]propanamido)-3,3-dimethylbutanoyl]-4-hydroxy-N-[[4-(4-methyl-1,3-thiazol-5-yl)phenyl]methyl]pyrrolidine-2-carboxamide] | > 1000 | > 1000 | < 50 | C (“C” indicates maximum degradation <50%)

More lines, main results first:

DC50 (HiBiT-BRM) [nM] | DC50 (HiBit-BRG1) [nM] | Dmax (HiBit-BRG1) [%] | SMILES | BRM HiBit Degradation Maximum (%) (HiBiT-BRM)
> 100 | > 1000 | > 75 | Cc1ncsc1-c1ccc([C@H](C)NC(=O)[C@@H]2C[C@@H](O)CN2C(=O)[C@@H](c2cc(OCCN3CCC(CC(=O)NCc4ccc(CCOc5cc(-c6ccccc6O)nnc5N)cc4)CC3)no2)C(C)C)cc1 [Compound 177, (2S,4R)-1-((R)-2-(3-(2-(4-(2-((4-(2-((3-amino-6-(2-hydroxyphenyl)pyridazin-4-yl)oxy)ethyl)benzyl)amino)-2-oxoethyl)piperidin-1-yl)ethoxy)isoxazol-5-yl)-3-methylbutanoyl)-4-hydroxy-N-((S)-1-(4-(4-methylthiazol-5-yl)phenyl)ethyl)pyrrolidine-2-carboxamide] | A (“A” indicates maximum degradation ≥75%)
> 100 | > 100 | > 75 | Cc1ncsc1-c1ccc([C@H](C)NC(=O)[C@@H]2C[C@@H](O)CN2C(=O)[C@@H](c2cc(OCCN3CC(C(=O)NCc4ccc(CCOc5cc(-c6ccccc6O)nnc5N)cc4)C3)no2)C(C)C)cc1 [Compound 178, (2S,4R)-1-((R)-2-(3-(2-(3-((4-(2-((3-amino-6-(2-hydroxyphenyl)pyridazin-4-yl)oxy)ethyl)benzyl)carbamoyl)azetidin-1-yl)ethoxy)isoxazol-5-yl)-3-methylbutanoyl)-4-hydroxy-N-((S)-1-(4-(4-methylthiazol-5-yl)phenyl)ethyl)pyrrolidine-2-carboxamide] | A (“A” indicates maximum degradation ≥75%)
> 1000 | > 1000 | < 50 | Cc1ncsc1-c1ccc(CNC(=O)[C@@H]2C[C@@H](O)CN2C(=O)[C@@H](NC(=O)CCN2CCC(CC(=O)NCc3ccc(CCOc4cc(-c5ccccc5O)nnc4N)cc3)CC2)C(C)(C)C)cc1 [Compound 181, (2S,4R)-1-((S)-2-(3-(4-(2-((4-(2-((3-amino-6-(2-hydroxyphenyl)pyridazin-4-yl)oxy)ethyl)benzyl)amino)-2-oxoethyl)piperidin-1-yl)propanamido)-3,3-dimethylbutanoyl)-4-hydroxy-N-(4-(4-methylthiazol-5-yl)benzyl)pyrrolidine-2-carboxamide] | C (“C” indicates maximum degradation <50%)
> 1000 | > 1000 | < 50 | Cc1ncsc1-c1ccc(CNC(=O)[C@@H]2C[C@@H](O)CN2C(=O)[C@@H](NC(=O)CCN2CCC(O)(C(=O)NCc3ccc(CCOc4cc(-c5ccccc5O)nnc4N)cc3)CC2)C(C)(C)C)cc1 [Compound 185, N-[[4-(2-[[3-amino-6-(2-hydroxyphenyl)pyridazin-4-yl]oxy]ethyl)phenyl]methyl]-4-hydroxy-1-(2-[[(2S)-1-[(2S,4R)-4-hydroxy-2-([[4-(4-methyl-1,3-thiazol-5-yl)phenyl]methyl]carbamoyl)pyrrolidin-1-yl]-3,3-dimethyl-1-oxobutan-2-yl]carbamoyl]ethyl)piperidine-4-carboxamide] | C (“C” indicates maximum degradation <50%)
> 1000 | > 1000 | < 50 | Cc1ncsc1-c1ccc(CNC(=O)[C@@H]2C[C@@H](O)CN2C(=O)[C@@H](NC(=O)CCNCc2ccc(CCOc3cc(-c4ccccc4O)nnc3N)cc2)C(C)(C)C)cc1 [Compound 187, (2S,4R)-1-((S)-2-(3-((4-(2-((3-amino-6-(2-hydroxyphenyl)pyridazin-4-yl)oxy)ethyl)benzyl)amino)propanamido)-3,3-dimethylbutanoyl)-4-hydroxy-N-(4-(4-methylthiazol-5-yl)benzyl)pyrrolidine-2-carboxamide] | C (“C” indicates maximum degradation <50%)
